Laboratory results published in ChEMBL document CHEMBL1201862, “PubChem BioAssay data set” (2004).
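1) Cells in 96-well plates. 2) Compound, 48 h, 5 concentrations. 3) Linear interpolation between surrounding doses. 4) Unreached endpoint = highest concentration. The concentration for 50% growth inhibition is given as GI50.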 Calls of active or inactive are those of the source. No stated cut-off is given here; in the data, active = GI50 up to about 1.1 µM and inactive = higher.

Columns and labels:
Assay in all cases: NCI anticancer screen, dose series, 48 h
[1] = tested on: RXF 393
[2] = tested on: IGROV-1
[3] = tested on: NCI-H460
[4] = tested on: KM12
[5] = tested on: SK-OV-3
[6] = tested on: OVCAR-3
[7] = tested on: SK-MEL-5
[8] = tested on: HCT-116
[9] = tested on: HCC 2998
[10] = tested on: EKVX
[11] = tested on: OVCAR-5
[12] = tested on: SR
[13] = tested on: UACC-62
[14] = tested on: SN12C
[15] = tested on: SNB-19
[16] = tested on: OVCAR-4

Measured: GI50

O=C(NNC(=O)c1cc(/C=C/c2cccc([N+](=O)[O-])c2)nc(S)n1)Nc1ccc(Cl)cc1
inactive: [1] 34.5 µM | [2] > 100 µM | [3] 46.6 µM | [4] 98.9 µM | [5] > 100 µM | [6] 62.8 µM | [7] 86.5 µM | [8] 27.2 µM | [9] > 100 µM | [10] > 100 µM | [11] > 100 µM | [12] 1.25 µM | [13] 50.6 µM | [14] > 100 µM

Cc1cccc(C)c1N1C(=O)C(=O)C(c2nc3ccccc3s2)/C(=N/NC(=O)NN)C1=O (configuration not stated)
inactive: [1] > 100 µM | [2] > 100 µM | [3] > 100 µM | [4] > 100 µM | [5] > 100 µM | [6] > 100 µM | [7] > 100 µM | [8] > 100 µM | [15] > 100 µM | [9] > 100 µM | [16] > 100 µM | [10] > 100 µM | [12] > 100 µM | [13] > 100 µM | [14] > 100 µM

COc1ccc2c(CN3CCCCC3CO)cc3cc(OC)c(OC)cc3c2c1 (configuration not stated)
inactive: [1] 6.65 µM | [2] 13.2 µM | [4] 4.35 µM | [5] 14.6 µM | [6] 5.57 µM | [7] 7.5 µM | [8] 1.75 µM | [15] 4.04 µM | [9] 7.59 µM | [10] 6.41 µM | [11] 3.1 µM | [12] 3.72 µM | [13] 10.4 µM | [14] 6.25 µM

CC(C)C(N)=O [ISOBUTYRAMIDE]
inactive: [1] > 5000 µM | [2] > 5000 µM | [3] > 5000 µM | [4] > 5000 µM | [5] > 5000 µM | [7] > 5000 µM | [8] > 5000 µM | [16] > 5000 µM | [11] > 5000 µM | [12] > 5000 µM | [13] > 5000 µM | [14] > 5000 µM

O=C(O)CCSC(=O)Nc1ccccc1Cl
inactive: [1] > 100 µM | [2] > 100 µM | [3] > 100 µM | [4] 51.2 µM | [5] > 100 µM | [6] > 100 µM | [7] > 100 µM | [8] > 100 µM | [15] > 100 µM | [9] > 100 µM | [16] > 100 µM | [10] > 100 µM | [11] > 100 µM | [12] > 100 µM | [13] > 100 µM | [14] > 100 µM

CC(=O)c1c(O)ccc2c1CC(CC=O)O2 (configuration not stated)
inactive: [1] > 100 µM | [2] > 100 µM | [3] > 100 µM | [4] > 100 µM | [5] > 100 µM | [6] 48.5 µM | [7] 79.8 µM | [8] 19.7 µM | [15] > 100 µM | [9] > 100 µM | [16] 98.6 µM | [11] > 100 µM | [12] > 100 µM | [13] 28.8 µM | [14] 58.9 µM

CCOC(=O)C(C(=O)OCC)=C1N[C@H](C(=O)OCC)CS1
inactive: [1] > 100 µM | [2] > 100 µM | [3] > 100 µM | [4] > 100 µM | [6] > 100 µM | [7] > 100 µM | [8] > 100 µM | [15] > 100 µM | [9] > 100 µM | [16] > 100 µM | [10] > 100 µM | [11] > 100 µM | [12] > 100 µM | [13] > 100 µM | [14] > 100 µM

Cc1ccc2nc(N)[nH]c(=O)c2c1Sc1ccncc1
inactive: [1] 55.8 µM | [2] > 71.6 µM | [3] 5.28 µM | [4] > 51.6 µM | [5] > 30.6 µM | [6] > 69.2 µM | [7] 21.2 µM | [8] 15.5 µM | [15] > 100 µM | [9] 1.36 µM | [16] 78.2 µM | [10] 49.8 µM | [11] 91.2 µM | [12] 5.07 µM | [13] 7.4 µM | [14] 17.5 µM

Nc1ccc2ncc(Nc3ccc(Cl)c(Cl)c3)nc2c1
inactive: [1] 24.7 µM | [3] 27.4 µM | [4] 25.9 µM | [5] 38.9 µM | [6] 19.4 µM | [7] 17.5 µM | [8] 21.2 µM | [15] 24.5 µM | [9] 17.6 µM | [16] 46 µM | [10] 27.2 µM | [11] 38.5 µM | [12] 57.7 µM | [13] 20.2 µM | [14] 36.4 µM

CC1OC(n2cc(I)c(=O)[nH]c2=O)C=CC1=O (configuration not stated)
inactive: [2] 20.4 µM | [3] 18.8 µM | [4] 13 µM | [5] 29.2 µM | [6] 17.5 µM | [7] 16 µM | [8] 11.8 µM | [15] 17.7 µM | [9] 17.5 µM | [16] 16.3 µM | [10] 17.5 µM | [11] 25 µM | [12] 12.6 µM | [13] 17.2 µM | [14] 18.7 µM
